“And” between values parts separate entries of the source, which are not always exact repeats. Equal entries are not always repeated. Inconclusive results and toxic doses are left out. No stated cut-off is given here; in the data, active means T/C of 150% or more; inactive means T/C below 125%.
System: L1210 leukemia ip in BDF1 mice, survival T/C
Test: NCI In Vivo Anticancer Drug Screen. Data for tumor model L1210 Leukemia (intraperitoneal) in B6D2F1 (BDF1) mice
Details: endpoint: mean survival time, higher = longer survival
Method in brief: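 Antitumor effect is assessed in tumor-bearing animals. Survival in the compound arm is compared with a vehicle-dosed control arm and expressed as their quotient.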

[1] = dose: 100.0 mg/kg/injection, schedule: Q01DX001 (ip), vehicle: saline
[2] = dose: 100.0 mg/kg/injection, schedule: Q01DX009 (ip), vehicle: Klucel (hydroxypropylcellulose) (HPC)
[3] = dose: 100.0 mg/kg/injection, schedule: Q04DX002 (ip), vehicle: Klucel (hydroxypropylcellulose) (HPC)
[4] = dose: 200.0 mg/kg/injection, schedule: Q01DX009 (ip), vehicle: Klucel (hydroxypropylcellulose) (HPC)
[5] = dose: 200.0 mg/kg/injection, schedule: Q04DX002 (ip), vehicle: Klucel (hydroxypropylcellulose) (HPC)
[6] = dose: 400.0 mg/kg/injection, schedule: Q04DX002 (ip), vehicle: Klucel (hydroxypropylcellulose) (HPC)
[7] = dose: 100.0 mg/kg/injection, schedule: Q04DX003 (ip), vehicle: saline
[8] = dose: 200.0 mg/kg/injection, schedule: Q04DX003 (ip), vehicle: saline
[9] = dose: 400.0 mg/kg/injection, schedule: Q04DX003 (ip), vehicle: saline
[10] = dose: 100.0 mg/kg/injection, schedule: Q04DX003 (ip), vehicle: Klucel (hydroxypropylcellulose) (HPC)
[11] = dose: 200.0 mg/kg/injection, schedule: Q04DX003 (ip), vehicle: Klucel (hydroxypropylcellulose) (HPC)
[12] = dose: 400.0 mg/kg/injection, schedule: Q04DX003 (ip), vehicle: Klucel (hydroxypropylcellulose) (HPC)
[13] = dose: 15.0 mg/kg/injection, schedule: Q01DX001 (ip), vehicle: saline
[14] = dose: 100.0 mg/kg/injection, schedule: Q04DX003 (ip), vehicle: saline with Tween-80
[15] = dose: 200.0 mg/kg/injection, schedule: Q04DX003 (ip), vehicle: saline with Tween-80
[16] = dose: 400.0 mg/kg/injection, schedule: Q04DX003 (ip), vehicle: saline with Tween-80
[17] = dose: 200.0 mg/kg/injection, schedule: Q01DX001 (ip), vehicle: saline

Measured: T/C

CC(C)C(=O)c1ccc(-c2ccccc2)cc1
inactive: dose: 25.0 mg/kg/injection, schedule: Q01DX009 (ip), vehicle: water 101 % of control | dose: 50.0 mg/kg/injection, schedule: Q01DX009 (ip), vehicle: water 106 % of control | dose: 100.0 mg/kg/injection, schedule: Q01DX009 (ip), vehicle: water 98 % of control | dose: 200.0 mg/kg/injection, schedule: Q01DX009 (ip), vehicle: water 95 % of control | dose: 400.0 mg/kg/injection, schedule: Q01DX009 (ip), vehicle: water 93 % of control

CCOc1ccc(C(=O)C(C)CN2CCN(C)CC2)cc1 (stereo not drawn)
inactive: [1] 98 % of control

O=C(Nc1cc(C(F)(F)F)ccc1Cl)Oc1ccc(F)cc1Cl
inactive: [2] 97 % of control and 101 % of control | [3] 95 % of control and 100 % of control | [4] 101 % of control and 108 % of control | [5] 100 % of control and 104 % of control | dose: 400.0 mg/kg/injection, schedule: Q01DX009 (ip), vehicle: Klucel (hydroxypropylcellulose) (HPC) 108 % of control and 89 % of control | [6] 103 % of control and 110 % of control

Cc1cccc(C)c1NCC(=O)NN
inactive: [3] 106 % of control | [5] 106 % of control | [6] 120 % of control

C/C=C1\C(=O)O[C@@]23C=C[C@H]4C(C(=O)OC)=CO[C@@H](O[C@H]12)[C@H]43
inactive: dose: 5.0 mg/kg/injection, schedule: Q01DX001 (ip), vehicle: saline 103 % of control | dose: 10.0 mg/kg/injection, schedule: Q01DX001 (ip), vehicle: saline 103 % of control | dose: 20.0 mg/kg/injection, schedule: Q01DX001 (ip), vehicle: saline 106 % of control | dose: 40.0 mg/kg/injection, schedule: Q01DX001 (ip), vehicle: saline 103 % of control

N#CC(C#N)=Cc1ccc([N+](=O)[O-])o1
inactive: dose: 1.56 mg/kg/injection, schedule: Q04DX003 (ip), vehicle: saline 103 % of control | dose: 3.12 mg/kg/injection, schedule: Q01DX009 (ip), vehicle: Klucel (hydroxypropylcellulose) (HPC) 103 % of control | dose: 3.12 mg/kg/injection, schedule: Q04DX003 (ip), vehicle: saline 92 % of control | dose: 6.25 mg/kg/injection, schedule: Q01DX009 (ip), vehicle: Klucel (hydroxypropylcellulose) (HPC) 104 % of control | dose: 6.25 mg/kg/injection, schedule: Q04DX003 (ip), vehicle: saline 103 % of control

C#CCOC(=O)NCC
inactive: [7] 101 % of control | [8] 102 % of control | [9] 96 % of control

C/C(CC(C)C)=N/Nc1nc(C)cc(=O)[nH]1
inactive: [2] 92 % of control | [10] 105 % of control | [4] 97 % of control | [11] 100 % of control | [12] 92 % of control

CCC(C#N)N1CC1 (stereo not drawn)
inactive: [13] 94 % of control | dose: 30.0 mg/kg/injection, schedule: Q01DX001 (ip), vehicle: saline 104 % of control

CCOc1ccc(OCC)c(NC(=O)Nc2cc(Cl)ccc2OC)c1
inactive: dose: 100.0 mg/kg/injection, schedule: Q01DX001 (ip), vehicle: saline with Tween-80 95 % of control | dose: 100.0 mg/kg/injection, schedule: Q01DX009 (ip), vehicle: saline with Tween-80 111 % of control and 90 % of control | dose: 100.0 mg/kg/injection, schedule: Q04DX002 (ip), vehicle: saline with Tween-80 98 % of control and 91 % of control | [14] 96 % of control | dose: 200.0 mg/kg/injection, schedule: Q01DX001 (ip), vehicle: saline with Tween-80 88 % of control | dose: 200.0 mg/kg/injection, schedule: Q01DX009 (ip), vehicle: saline with Tween-80 101 % of control and 92 % of control | dose: 200.0 mg/kg/injection, schedule: Q04DX002 (ip), vehicle: saline with Tween-80 94 % of control and 103 % of control | [15] 94 % of control | dose: 400.0 mg/kg/injection, schedule: Q01DX001 (ip), vehicle: saline with Tween-80 87 % of control | dose: 400.0 mg/kg/injection, schedule: Q01DX009 (ip), vehicle: saline with Tween-80 89 % of control | dose: 400.0 mg/kg/injection, schedule: Q04DX002 (ip), vehicle: saline with Tween-80 91 % of control and 92 % of control | [16] 91 % of control

CCN(CCCCOC(=O)c1ccc(OC)c(OC)c1)C(C)Cc1ccc(OC)cc1 (stereo not drawn)
inactive: dose: 9.37 mg/kg/injection, schedule: Q01DX009 (ip), vehicle: saline 95 % of control | dose: 18.75 mg/kg/injection, schedule: Q01DX009 (ip), vehicle: saline 87 % of control | dose: 18.75 mg/kg/injection, schedule: Q04DX003 (ip), vehicle: saline 114 % of control | dose: 37.5 mg/kg/injection, schedule: Q01DX009 (ip), vehicle: saline 101 % of control | dose: 37.5 mg/kg/injection, schedule: Q04DX003 (ip), vehicle: saline 100 % of control | dose: 75.0 mg/kg/injection, schedule: Q01DX009 (ip), vehicle: saline 108 % of control | dose: 75.0 mg/kg/injection, schedule: Q04DX003 (ip), vehicle: saline 100 % of control | dose: 150.0 mg/kg/injection, schedule: Q04DX003 (ip), vehicle: saline 105 % of control

CCCCCC[Si](Cl)(CCCCCC)CCCCCC
inactive: [1] 87 % of control | [17] 98 % of control

Cc1ccc([P+](Cc2ccccc2)(c2ccccc2)c2ccc(C)cc2)cc1
inactive: [13] 96 % of control

O=C(C1C2CCC(C2)C1C(=O)N1CCCCC1)N1CCCCC1 (stereo not drawn)
inactive: [14] 100 % of control | [15] 100 % of control | [16] 100 % of control

CNc1nc(N)c(N=O)c(Nc2ccc(Br)cc2)n1
inactive: dose: 100.0 mg/kg/injection, schedule: Q01DX001 (ip), vehicle: carboxymethylcellulose (CMC) 102 % of control | dose: 200.0 mg/kg/injection, schedule: Q01DX001 (ip), vehicle: carboxymethylcellulose (CMC) 104 % of control | dose: 400.0 mg/kg/injection, schedule: Q01DX001 (ip), vehicle: carboxymethylcellulose (CMC) 102 % of control

Nc1ccc(C(=O)CC(=O)c2cccc([N+](=O)[O-])c2)cc1
inactive: dose: 100.0 mg/kg/injection, schedule: Q04DX003 (ip), vehicle: carboxymethylcellulose (CMC) 97 % of control | dose: 200.0 mg/kg/injection, schedule: Q04DX003 (ip), vehicle: carboxymethylcellulose (CMC) 93 % of control | dose: 400.0 mg/kg/injection, schedule: Q04DX003 (ip), vehicle: carboxymethylcellulose (CMC) 90 % of control

CCC1CCCC(C(=O)O)N1 (stereo not drawn)
inactive: dose: 100.0 mg/kg/injection, schedule: Q01DX009 (ip), vehicle: saline 101 % of control | [7] 95 % of control | dose: 200.0 mg/kg/injection, schedule: Q01DX009 (ip), vehicle: saline 95 % of control | [8] 95 % of control | dose: 400.0 mg/kg/injection, schedule: Q01DX009 (ip), vehicle: saline 100 % of control | [9] 105 % of control

CC(C)(CO)c1ccccc1
inactive: [1] 104 % of control | [17] 104 % of control | dose: 400.0 mg/kg/injection, schedule: Q01DX001 (ip), vehicle: saline 107 % of control

Cc1cc(C)c(B2OB(c3c(C)cc(C)cc3C)O2)c(C)c1
inactive: [2] 95 % of control | [10] 96 % of control | [4] 97 % of control | [11] 103 % of control | [12] 91 % of control

COc1cc(C)c(NC(=O)Oc2ccccc2)c(C)c1
inactive: [14] 89 % of control | [15] 91 % of control | [16] 91 % of control

Source: PubChem BioAssay AID248 (DTP/NCI, 2004)
